Measurements as given in ChEMBL document CHEMBL4390652, “Design, biological evaluation and X-ray crystallography of nanomolar multifunctional ligands targeting simultaneously acetylcholinesterase and glycogen synthase kinase-3” (Eur J Med Chem, 2019).

Key:
[1] = target: Cyclin-dependent kinase 16 (Homo sapiens) (UniProt Q00536); assay: Binding affinity to wild-type human partial length PCTK1 (G160 to A474 residues) expressed in mammalian expression system assessed as residual binding level at 10 uM by Kinomescan method relative to control
[2] = target: Cyclin-dependent kinase 13 (Homo sapiens) (UniProt Q14004); assay: Binding affinity to wild-type human partial length CDC2L5 (H675 to S1054 residues) expressed in mammalian expression system assessed as residual binding level at 10 uM by Kinomescan method relative to control
[3] = target: Dual specificity mitogen-activated protein kinase kinase 3 (Homo sapiens) (UniProt P46734); assay: Binding affinity to wild-type human full length MEK3 (M1 to S318 residues) expressed in mammalian expression system assessed as residual binding level at 10 uM by Kinomescan method relative to control
[4] = target: Calcium/calmodulin-dependent protein kinase kinase 2 (Homo sapiens) (UniProt Q96RR4); assay: Binding affinity to wild-type human partial length CAMKK2 (D65 to V471 residues) expressed in bacterial expression system assessed as residual binding level at 10 uM by Kinomescan method relative to control
Calcium/calmodulin-dependent protein kinase kinase 2 (Homo sapiens), sequence (Q96RR4 2-588 limits assumed): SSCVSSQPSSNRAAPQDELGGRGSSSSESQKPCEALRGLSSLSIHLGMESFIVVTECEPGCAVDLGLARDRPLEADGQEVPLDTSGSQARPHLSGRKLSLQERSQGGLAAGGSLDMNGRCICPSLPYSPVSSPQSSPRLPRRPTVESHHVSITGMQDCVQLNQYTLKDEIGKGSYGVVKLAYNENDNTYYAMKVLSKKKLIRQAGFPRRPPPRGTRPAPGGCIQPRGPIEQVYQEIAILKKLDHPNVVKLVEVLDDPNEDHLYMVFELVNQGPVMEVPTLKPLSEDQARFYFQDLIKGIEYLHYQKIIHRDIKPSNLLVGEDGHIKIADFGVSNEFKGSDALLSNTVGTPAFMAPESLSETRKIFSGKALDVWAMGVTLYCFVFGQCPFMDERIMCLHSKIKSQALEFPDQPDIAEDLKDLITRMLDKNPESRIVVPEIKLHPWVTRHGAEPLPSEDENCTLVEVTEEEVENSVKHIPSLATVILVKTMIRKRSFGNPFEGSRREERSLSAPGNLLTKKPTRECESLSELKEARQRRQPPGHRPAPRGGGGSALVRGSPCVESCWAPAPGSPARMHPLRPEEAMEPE

[5] = target: Bone morphogenetic protein receptor type-2 (Homo sapiens) (UniProt Q13873); assay: Binding affinity to wild-type human partial length BMPR2 (R179 to Q526 residues) expressed in mammalian expression system assessed as residual binding level at 10 uM by Kinomescan method relative to control
[6] = system: Receptor-type tyrosine-protein kinase FLT3 (Homo sapiens), P36888 [R834Q]; assay: Binding affinity to human partial length FLT3 R834Q mutant (V592 to Y969 residues) expressed in mammalian expression system assessed as residual binding level at 10 uM by Kinomescan method relative to control
[7] = target: Testis-specific serine/threonine-protein kinase 1 (Homo sapiens) (UniProt Q9BXA7); assay: Binding affinity to wild-type human full length TSSK1B (M1 to Q367 residues) expressed in bacterial expression system assessed as residual binding level at 10 uM by Kinomescan method relative to control
[8] = target: Aurora kinase B (Homo sapiens) (UniProt Q96GD4); assay: Binding affinity to wild-type human partial length AURKB (D25 to A303 residues) expressed in mammalian expression system assessed as residual binding level at 10 uM by Kinomescan method relative to control
Aurora kinase B (Homo sapiens), sequence (Q96GD4 whole entry, the tested form may be a part): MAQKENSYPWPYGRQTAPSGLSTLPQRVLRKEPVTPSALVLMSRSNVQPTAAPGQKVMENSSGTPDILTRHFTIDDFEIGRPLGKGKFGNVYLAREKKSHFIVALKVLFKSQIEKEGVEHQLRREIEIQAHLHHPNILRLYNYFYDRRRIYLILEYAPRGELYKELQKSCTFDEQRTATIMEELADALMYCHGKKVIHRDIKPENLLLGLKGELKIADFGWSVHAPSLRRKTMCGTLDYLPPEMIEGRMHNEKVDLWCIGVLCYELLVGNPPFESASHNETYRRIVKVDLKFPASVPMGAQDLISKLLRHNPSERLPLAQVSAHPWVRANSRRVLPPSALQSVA

[9] = target: Tyrosine-protein kinase ABL2 (Homo sapiens) (UniProt P42684); assay: Binding affinity to wild-type human ABL2 (A248 to G542 residues) expressed in bacterial expression system assessed as residual binding level at 10 uM by Kinomescan method relative to control
Tyrosine-protein kinase ABL2 (Homo sapiens), sequence (P42684 whole entry, the tested form may be a part, canonical isoform): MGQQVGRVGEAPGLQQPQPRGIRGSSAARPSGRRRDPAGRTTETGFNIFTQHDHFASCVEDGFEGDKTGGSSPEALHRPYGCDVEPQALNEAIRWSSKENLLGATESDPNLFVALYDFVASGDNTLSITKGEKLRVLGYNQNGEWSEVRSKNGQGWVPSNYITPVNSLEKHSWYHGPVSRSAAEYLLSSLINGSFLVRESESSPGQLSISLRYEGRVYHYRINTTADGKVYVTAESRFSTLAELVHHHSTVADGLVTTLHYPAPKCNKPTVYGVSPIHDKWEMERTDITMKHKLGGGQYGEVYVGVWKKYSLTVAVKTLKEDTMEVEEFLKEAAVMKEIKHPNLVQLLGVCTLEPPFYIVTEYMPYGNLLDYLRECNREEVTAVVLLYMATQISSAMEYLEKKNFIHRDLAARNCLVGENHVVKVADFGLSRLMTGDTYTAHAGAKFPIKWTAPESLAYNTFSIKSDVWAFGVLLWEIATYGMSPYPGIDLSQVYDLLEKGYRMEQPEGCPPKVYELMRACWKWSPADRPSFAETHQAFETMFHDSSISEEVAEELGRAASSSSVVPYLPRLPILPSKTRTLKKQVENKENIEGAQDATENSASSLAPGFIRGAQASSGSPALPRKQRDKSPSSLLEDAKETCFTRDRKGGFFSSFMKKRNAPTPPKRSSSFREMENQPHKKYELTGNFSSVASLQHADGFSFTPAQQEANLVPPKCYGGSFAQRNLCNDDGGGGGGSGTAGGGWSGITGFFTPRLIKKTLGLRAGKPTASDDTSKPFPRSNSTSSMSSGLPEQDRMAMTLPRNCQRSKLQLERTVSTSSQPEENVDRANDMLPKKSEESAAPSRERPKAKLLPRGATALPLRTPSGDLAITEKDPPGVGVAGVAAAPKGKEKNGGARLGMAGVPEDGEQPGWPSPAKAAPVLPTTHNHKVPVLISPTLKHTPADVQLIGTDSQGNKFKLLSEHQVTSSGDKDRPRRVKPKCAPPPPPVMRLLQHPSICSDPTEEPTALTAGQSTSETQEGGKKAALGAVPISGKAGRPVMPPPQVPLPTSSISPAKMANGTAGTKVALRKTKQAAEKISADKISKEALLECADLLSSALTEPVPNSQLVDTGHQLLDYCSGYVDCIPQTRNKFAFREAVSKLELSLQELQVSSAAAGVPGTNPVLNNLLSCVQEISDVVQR

[10] = system: Phosphatidylinositol 4,5-bisphosphate 3-kinase catalytic subunit alpha isoform (Homo sapiens), P42336 [C420R]; assay: Binding affinity to human partial length PIK3CA C420R mutant (R108 to N1068 residues) expressed in mammalian expression system assessed as residual binding level at 10 uM by Kinomescan method relative to control
Phosphatidylinositol 4,5-bisphosphate 3-kinase catalytic subunit alpha isoform (Homo sapiens), P42336 [C420R], sequence (P42336 whole entry C420R, the tested form may be a part, canonical isoform): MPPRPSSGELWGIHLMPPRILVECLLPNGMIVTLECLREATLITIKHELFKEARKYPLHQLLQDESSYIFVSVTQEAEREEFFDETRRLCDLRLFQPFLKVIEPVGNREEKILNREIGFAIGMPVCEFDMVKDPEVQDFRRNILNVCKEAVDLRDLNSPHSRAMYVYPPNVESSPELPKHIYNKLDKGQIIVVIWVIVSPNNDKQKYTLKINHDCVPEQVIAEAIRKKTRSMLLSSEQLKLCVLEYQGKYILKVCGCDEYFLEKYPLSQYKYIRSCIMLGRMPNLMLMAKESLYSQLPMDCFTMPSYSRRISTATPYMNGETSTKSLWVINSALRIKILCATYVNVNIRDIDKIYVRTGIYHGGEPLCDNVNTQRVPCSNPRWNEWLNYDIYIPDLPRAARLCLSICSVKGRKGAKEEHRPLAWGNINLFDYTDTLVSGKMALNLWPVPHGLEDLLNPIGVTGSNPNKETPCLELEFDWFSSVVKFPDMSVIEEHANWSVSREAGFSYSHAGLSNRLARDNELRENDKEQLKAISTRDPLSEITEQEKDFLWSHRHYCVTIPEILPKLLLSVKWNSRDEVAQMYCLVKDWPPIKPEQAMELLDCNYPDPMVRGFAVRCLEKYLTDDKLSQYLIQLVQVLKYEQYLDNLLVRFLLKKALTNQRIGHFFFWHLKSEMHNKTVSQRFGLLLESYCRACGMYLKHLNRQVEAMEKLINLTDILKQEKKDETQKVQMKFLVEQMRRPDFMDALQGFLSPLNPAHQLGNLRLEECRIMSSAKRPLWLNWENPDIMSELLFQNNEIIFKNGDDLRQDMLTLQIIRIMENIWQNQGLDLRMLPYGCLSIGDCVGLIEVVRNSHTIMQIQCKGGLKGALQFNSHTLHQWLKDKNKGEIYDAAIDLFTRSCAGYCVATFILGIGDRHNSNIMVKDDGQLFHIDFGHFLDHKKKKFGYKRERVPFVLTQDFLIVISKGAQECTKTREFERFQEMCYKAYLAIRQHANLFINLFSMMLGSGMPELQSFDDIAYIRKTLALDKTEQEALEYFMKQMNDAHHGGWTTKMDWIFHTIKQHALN

[11] = target: Cyclin-dependent kinase 3 (Homo sapiens) (UniProt Q00526); assay: Binding affinity to wild-type human full length CDK3 (M1 to H305 residues) expressed in bacterial expression system assessed as residual binding level at 10 uM by Kinomescan method relative to control
Cyclin-dependent kinase 3 (Homo sapiens), sequence (Q00526 whole entry, looked up, the tested form may be a part): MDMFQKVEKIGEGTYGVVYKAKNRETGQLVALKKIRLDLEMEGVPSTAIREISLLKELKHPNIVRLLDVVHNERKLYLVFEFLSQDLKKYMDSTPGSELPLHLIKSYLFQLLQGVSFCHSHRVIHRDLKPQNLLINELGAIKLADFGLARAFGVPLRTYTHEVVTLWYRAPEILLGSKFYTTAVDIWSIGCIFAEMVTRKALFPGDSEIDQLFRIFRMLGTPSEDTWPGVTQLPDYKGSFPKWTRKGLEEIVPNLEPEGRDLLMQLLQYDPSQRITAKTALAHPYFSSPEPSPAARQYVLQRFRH

[12] = target: Interleukin-1 receptor-associated kinase 1 (Homo sapiens) (UniProt P51617); assay: Binding affinity to wild-type human partial length IRAK1 (R194 to S712 residues) expressed in mammalian expression system assessed as residual binding level at 10 uM by Kinomescan method relative to control
[13] = system: Phosphatidylinositol 4,5-bisphosphate 3-kinase catalytic subunit alpha isoform (Homo sapiens), P42336 [H1047Y]; assay: Binding affinity to human partial length PIK3CA H1047Y mutant (R108 to N1068 residues) expressed in mammalian expression system assessed as residual binding level at 10 uM by Kinomescan method relative to control
[14] = system: Epidermal growth factor receptor (Homo sapiens), P00533 [L861Q]; assay: Binding affinity to human partial length EGFR L861Q mutant (R669 to V1011 residues) expressed in bacterial expression system assessed as residual binding level at 10 uM by Kinomescan method relative to control
[15] = target: Dual specificity testis-specific protein kinase 1 (Homo sapiens) (UniProt Q15569); assay: Binding affinity to wild-type human full length TESK1 (R37 to S626 residues) expressed in bacterial expression system assessed as residual binding level at 10 uM by Kinomescan method relative to control
[16] = target: Receptor-type tyrosine-protein kinase FLT3 (Homo sapiens) (UniProt P36888); assay: Binding affinity to wild-type human partial length autoinhibited FLT3 (H564 to Y969 residues) expressed in mammalian expression system assessed as residual binding level at 10 uM by Kinomescan method relative to control
[17] = target: Casein kinase I isoform gamma-1 (Homo sapiens) (UniProt Q9HCP0); assay: Binding affinity to wild-type human partial length CSNK1G1 (T15 to S353 residues) expressed in bacterial expression system assessed as residual binding level at 10 uM by Kinomescan method relative to control
[18] = target: Phosphatidylinositol 5-phosphate 4-kinase type-2 beta (Homo sapiens) (UniProt P78356); assay: Binding affinity to wild-type human full length PIP5K2B (M1 to T416 residues) expressed in bacterial expression system assessed as residual binding level at 10 uM by Kinomescan method relative to control
[19] = target: Macrophage-stimulating protein receptor (Homo sapiens) (UniProt Q04912); assay: Binding affinity to wild-type human partial length MST1R (I1057 to L1363 residues) expressed in bacterial expression system assessed as residual binding level at 10 uM by Kinomescan method relative to control
[20] = target: Serine/threonine-protein kinase SIK2 (Homo sapiens) (UniProt Q9H0K1); assay: Binding affinity to wild-type human full length SIK2 (M1 to N926 residues) expressed in bacterial expression system assessed as residual binding level at 10 uM by Kinomescan method relative to control
Serine/threonine-protein kinase SIK2 (Homo sapiens), sequence (Q9H0K1 whole entry, looked up, the tested form may be a part): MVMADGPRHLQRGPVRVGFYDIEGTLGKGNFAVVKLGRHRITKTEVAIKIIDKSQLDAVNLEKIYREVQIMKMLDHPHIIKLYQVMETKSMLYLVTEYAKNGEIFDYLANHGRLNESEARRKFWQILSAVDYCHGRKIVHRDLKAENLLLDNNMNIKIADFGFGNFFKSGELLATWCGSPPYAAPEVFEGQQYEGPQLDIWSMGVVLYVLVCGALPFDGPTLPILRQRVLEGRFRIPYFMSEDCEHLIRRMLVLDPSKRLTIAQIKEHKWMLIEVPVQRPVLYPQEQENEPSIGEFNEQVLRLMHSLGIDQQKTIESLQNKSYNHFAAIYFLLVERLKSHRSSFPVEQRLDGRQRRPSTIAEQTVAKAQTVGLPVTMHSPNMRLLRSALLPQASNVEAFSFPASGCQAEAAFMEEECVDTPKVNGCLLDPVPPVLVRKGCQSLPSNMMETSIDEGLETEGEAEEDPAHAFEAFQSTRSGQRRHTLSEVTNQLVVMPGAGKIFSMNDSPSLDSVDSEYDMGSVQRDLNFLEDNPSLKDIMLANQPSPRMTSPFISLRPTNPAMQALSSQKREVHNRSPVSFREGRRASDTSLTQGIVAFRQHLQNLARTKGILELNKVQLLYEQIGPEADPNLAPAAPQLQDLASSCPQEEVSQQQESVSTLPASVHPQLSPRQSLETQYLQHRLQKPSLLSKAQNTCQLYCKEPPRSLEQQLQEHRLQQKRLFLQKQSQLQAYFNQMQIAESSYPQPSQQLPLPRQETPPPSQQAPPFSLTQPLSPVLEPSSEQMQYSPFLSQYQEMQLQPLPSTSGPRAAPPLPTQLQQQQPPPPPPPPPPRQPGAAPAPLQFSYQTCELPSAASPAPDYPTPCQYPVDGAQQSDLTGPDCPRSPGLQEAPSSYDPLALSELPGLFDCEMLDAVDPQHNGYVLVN

[21] = system: MDR1; assay: in vitro; details: dog, MDCK-MDR1
Description: Apparent permeability across basolateral to apical side in MDCK2-MDR1 cells by HPLC analysis

[22] = system: Huh-7; assay: Cytotoxicity against human HuH7 cells assessed as growth inhibition incubated for 48 hrs by Hoechst 33342 staining based assay; assay type: cell-based; details: Huh-7, 48 h
[23] = target: Serine/threonine-protein kinase PAK 2 (Homo sapiens) (UniProt Q13177); assay: Binding affinity to wild-type human partial length PAK2 (P151 to R525 residues) expressed in bacterial expression system assessed as residual binding level at 10 uM by Kinomescan method relative to control
Serine/threonine-protein kinase PAK 2 (Homo sapiens), sequence (Q13177 whole entry, the tested form may be a part): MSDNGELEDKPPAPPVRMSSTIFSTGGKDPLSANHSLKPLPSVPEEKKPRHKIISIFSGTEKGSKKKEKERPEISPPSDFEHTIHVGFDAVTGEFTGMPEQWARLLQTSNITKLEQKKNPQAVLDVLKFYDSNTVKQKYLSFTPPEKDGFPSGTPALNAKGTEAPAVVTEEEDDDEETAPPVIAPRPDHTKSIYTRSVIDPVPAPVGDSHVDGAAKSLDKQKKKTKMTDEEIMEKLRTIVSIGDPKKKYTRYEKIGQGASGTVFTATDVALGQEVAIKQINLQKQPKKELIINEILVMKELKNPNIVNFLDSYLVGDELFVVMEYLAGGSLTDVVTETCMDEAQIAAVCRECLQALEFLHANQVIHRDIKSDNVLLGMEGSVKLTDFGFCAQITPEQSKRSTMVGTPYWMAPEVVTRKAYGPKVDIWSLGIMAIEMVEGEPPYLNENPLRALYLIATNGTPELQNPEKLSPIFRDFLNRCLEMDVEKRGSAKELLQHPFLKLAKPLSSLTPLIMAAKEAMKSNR

[24] = target: Rho-associated protein kinase 2 (Homo sapiens) (UniProt O75116); assay: Binding affinity to wild-type human partial length ROCK2 (M1 to T431 residues) expressed in mammalian expression system assessed as residual binding level at 10 uM by Kinomescan method relative to control
[25] = target: Myotonin-protein kinase (Homo sapiens) (UniProt Q09013); assay: Binding affinity to wild-type human partial length DMPK (V47 to V415 residues) expressed in bacterial expression system assessed as residual binding level at 10 uM by Kinomescan method relative to control

`O=C(Nc1cc(-c2cn(CCNc3c4c(nc5ccccc35)CCCC4)nn2)ccn1)Nc1cccc2c1C1CCCCN1C2=O` (racemic) gave an Activity [1] of 4.3%, an Activity [2] of 0.61% and an Activity [3] of 70%. For the same molecule, the Activity [4] was 18%, the Activity [5] was 55% and the Activity [6] was 1.3%. The Activity [7] was 47%, the Activity [8] was 5.6% and the Activity [9] was 22%. The Activity [10] was 72%, the Activity [11] was 90% and the Activity [12] was 8.7%. It also gave an Activity [13] of 86%, an Activity [14] of 67% and an Activity [15] of 75%. For the same molecule, the Activity [16] was 12%, the Activity [17] was 63% and the Activity [18] was 16%. The Activity [19] was 89%, the Activity [20] was 36% and the Papp B→A [21] was 16.8 ×10⁻⁶ cm/s. For the same molecule, the IC50 [22] was 3000 nM, the Activity [23] was 34% and the Activity [24] was 26%. It also gave an Activity [25] of 18%.
